Assay results published in patent US6262031A, “Method for treating pediculosis capitisinfestation” (Merck & Co., Inc., priority 2000, dated 2001).

Legend:
nematodes = conditions: cited from earlier work
head lice [1] = test: Example 8: comparison of head lice treatment using orally administered ivermectin at cumulative doses of 800, 1200 and 600 ug/kg and shampoo cleaning; type: in vivo, human; conditions: for Treatment success (%) Day 15: washing shampoo the day after each dose
Description: On Days 1, 4 and 8, patients had their scalp inspected for nits and lice. Their hair was shampooed on Days 2, 5, 9, and 15. The rinse water was filtered through a towel that enabled the number of lice (for each stage of nymph and/or adult lice) to be recorded. An independent qualitative assessment was performed on those towels with live lice at Day 15. Clinical adverse experiences were collected at all visits.
The primary analysis was based on treatment outcome (success or failure) on Day 15. "Treatment success" is defined to mean that no live lice were observed on Day 15, or, if lice were present on Day 15, that they were the result of reinfestation. "Reinfestation" corresponds to the condition where the patient, previously free of lice (including any stage nymphs and/or adult lice) on Day 9, is infested thereafter with adult lice. Patients who were reinfested were counted as successes. The percent of treatment success was calculated.
(§1) Three groups of patients were treated.

[2] = tested on: Strongyloides stercoralis; conditions: cited from earlier work
[3] = ivermectin; cited from earlier work
[4] = cited from earlier work
Onchocerca volvulus [5] = conditions: single oral dose, cited from earlier work
head lice [6] = test: Example 2: comparison of head lice treatment using orally administered ivermectin at cumulative doses of 200, 400 and 600 ug/kg; type: in vivo, human
Description: On Days 1, 4, 8 and 15, patients had their scalp inspected for viable nits and their hair shampooed (prior to dosing, if the day for scalp inspection was also a "dosing" day). The rinse water was filtered through a towel that enabled the number of lice (for each stage of nymphs and/or adult lice) to be recorded. An independent qualitative assessment was performed on a subset of towels. All patients were also seen on Days 5 and 9 for the assessment of clinical adverse experiences.
The primary analysis was based on treatment outcome (success or failure) on Day 15. "treatment success" is defined to mean that no live lice were observed on Day 15. "Reinfestation" corresponds to the condition where the patient, previously free of lice (including any stage nymphs and/or adult lice) on Day 8, is infested thereafter with adult lice. "Reinfestation" also corresponds to the condition where the patient, previously free of lice and nits, is infested thereafter with adult lice and first and second stage nymphs. The percent of treatment success was calculated.
as §1

[7] = tested on: mammalian ligand-gated chloride channels; conditions: cited from earlier work
head lice [8] = conditions: single oral dose 100-200 ug/kg; cited from earlier work
Onchocerca volvulus [9] = conditions: cited from earlier work
[10] = Example 7: ivermectin plasma levels in fasted and fed state; type: in vivo, human; conditions: 30 mg oral; high fat meal vs fasting, three weeks apart
head lice [11] = conditions: single topical application; cited from earlier work
[12] = tested on: glutamate-gated chloride ion channels; conditions: invertebrate nerve and muscle cells; cited from earlier work
Pediculosis capitis = conditions: 200 ug/kg single oral dose, 26 patients; cited from earlier work
[13] = tested on: adult worm of any species of Filarioidea; conditions: causing lymphatic filariasis, tropical pulmonary eosinophilia syndrome, lymphadenitis or lymphangitis; cited from earlier work

## mixture containing at least 90% 5-O-demethyl-22,23-dihydroavermectin A1a and less than 10% 5-O-demethyl-25-de(1-methylpropyl)-22,23-dihyro-25-(1-methylethyl) avermectin A1a [ivermectin]
nematodes
  activity against life-cycle stages of nematodes: active against various life-cycle stages of many but not all nematodes
Head lice [1]; Group 1: oral 400 ug/kg on Days 1 and 8, 57 patients
  Treatment success (%) Day 15: 98.2%
Head lice [1]; Group 2: oral 400 ug/kg on Days 1, 4 and 8, 60 patients
  Treatment success (%) Day 15: 100%
Head lice [1]; Group 3: oral 200 ug/kg on Days 1, 4 and 8, 57 patients
  Treatment success (%) Day 15: 100%
Head lice [1]; all three study groups, Day 15
  success rates, comparison of groups: comparable success rates
[2]
  activity against Strongyloides stercoralis: limited to the intestinal stages
[3]
  plasma half-life: about 12 hours
[4]; amicrofilaremic population, mass treatment programs
  overall incidences of adverse experiences: 1%
[4]; studies of microfilaremic patients
  laboratory abnormalities: eosinophilia, liver function abnormalities and hematuria
Onchocerca volvulus [5]; after one month
  dermal microfilarial density: near zero
Onchocerca volvulus [5]
  maintenance of low microfilarial level: up to 12 months
Head lice [6]; 200 ug/kg doses on Days 1, 4 and 8
  success rate, comparison of groups: highest success rate
Head lice [6]; Group 1: oral 200 ug/kg on Day 1, 29 patients
  Treatment success (%) Day 15: 52%
Head lice [6]; Group 2: oral 200 ug/kg on Days 1 and 8, 28 patients
  Treatment success (%) Day 15: 68%
Head lice [6]; Group 3: oral 200 ug/kg on Days 1, 4 and 8, 31 patients
  Treatment success (%) Day 15: 81%
[7]
  affinity for mammalian ligand-gated chloride channels: low affinity
Head lice [8]
  effect on head lice infestation: significant, but not absolute, effect
Onchocerca volvulus [9]; adult form
  activity against the adult form: not against the adult form
Onchocerca volvulus [9]; tissue microfilariae
  activity against tissue microfilariae: active against the tissue microfilariae
[10]
  increase in bioavailability, fed vs fasted state: 2.5 times
Head lice [11]
  curative effect on head lice: absolute curative effect
[12]
  binding affinity to glutamate-gated chloride ion channels: selectively binds with high affinity
  effect of binding on cell membrane and parasite: increase in the permeability of the cell membrane to chloride ions with hyperpolarization of the nerve or muscle cell, resulting in paralysis and death of the parasite
Pediculosis capitis
  effectiveness against head lice: effectiveness of ivermectin 200 mcg/kg single dose against head lice
[13]
  activity against adult worm of any species of Filarioidea: has not been shown to have any activity against adult worm
